Our source for the EC50 values is BindingDB's records for doi:10.7270/Q2PZ576Z (The Scripps Research Institute Molecular Screening Center, 2007).

SMILES strings stand for the structures.

In the first assay the target is Sphingosine 1-phosphate receptor 3 (Homo sapiens, UniProt Q99500). The assay can be described thus: S1P3 receptor activation, EC50 – cell-based, NFAT-BLA reporter, dose response (AID 439).
Sequence of Sphingosine 1-phosphate receptor 3 (Q99500 whole entry): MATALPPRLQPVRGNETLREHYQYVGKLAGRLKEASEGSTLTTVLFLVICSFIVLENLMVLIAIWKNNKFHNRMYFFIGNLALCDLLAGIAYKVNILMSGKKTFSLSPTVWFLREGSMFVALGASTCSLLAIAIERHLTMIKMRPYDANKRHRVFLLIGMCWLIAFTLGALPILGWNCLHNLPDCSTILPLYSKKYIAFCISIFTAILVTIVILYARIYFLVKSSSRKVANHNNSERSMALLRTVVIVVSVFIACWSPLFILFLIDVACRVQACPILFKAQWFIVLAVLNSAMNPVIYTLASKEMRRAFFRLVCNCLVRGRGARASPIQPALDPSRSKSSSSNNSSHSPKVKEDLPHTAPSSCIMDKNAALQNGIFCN
Details: not given
What is called EC50 is the concentration at which the effect is half-maximal. A low value points to an effect from little substance. On to `CCC(C)NC(=O)c1c(N)n(Cc2ccc3c(c2)OCO3)c2nc3ccccc3nc12` (configuration not stated) [2-amino-1-(1,3-benzodioxol-5-ylmethyl)-N-butan-2-ylpyrrolo[3,2-b]quinoxaline-3-carboxamide], for which it took 7.93 µM to reach a half-maximal effect (EC50). That is a single-digit micromolar value.
Same read-out and setting: the result for `CC(C)n1c(=N)c(C(=O)NCCc2ccccc2)cc2c(=O)n3ccccc3nc21` [2-Imino-1-isopropyl-10-oxo-1,10-dihydro-2H-1,9,10a-triaza-anthracene-3-carboxylic acid phenethyl-amide] reads more than 45 µM; that for `CCCN(CCC)CCCNC(=O)CC1Nc2ccccc2NC1=O` (configuration not stated) [MLS000046817], more than 45 µM; that for `CCOc1ccc(-c2nc(-c3ccncc3)no2)cc1OCC` [4-[5-(3,4-diethoxyphenyl)-1,2,4-oxadiazol-3-yl]pyridine], 2.77 µM.
The same measure, in the same setting: the result for `CC(=O)Oc1ccc2cc(-c3nc4ccccc4n3C)c(=O)oc2c1` reads 6.42 µM; that for `Cc1cc(NC(=O)NC(=O)c2cccc(OC(F)(F)C(F)F)c2)[nH]n1`, more than 45 µM.

Still in this assay, the particulars now being: inactive by the depositor's call.
`C/C(Cl)=C/Cn1c(N2CCCC2)nc2c1c(=O)n(C)c(=O)n2C` [7-((Z)-3-Chloro-but-2-enyl)-1,3-dimethyl-8-pyrrolidin-1-yl-3,7-dihydro-purine-2,6-dione] registered an EC50 of 38.5 µM. That is a double-digit micromolar value.
As to `CC(C)Cn1c(N)c(C(=O)NCc2cccs2)c2nc3ccccc3nc21` [SMR000043082], a half-maximal response (EC50) required 29.7 µM.
Same read-out and setting: the result for `Nc1c(C(=O)NC2CCCC2)c2nc3ccccc3nc2n1CC1CCCO1` (configuration not stated) [MLS000080255] reads 14.7 µM.
Still for that read-out and setting: the result for `Cc1ccc(NC(=O)CC2Nc3ccccc3NC2=O)cc1Cl` (configuration not stated) [N-(3-chloranyl-4-methyl-phenyl)-2-(3-oxidanylidene-2,4-dihydro-1H-quinoxalin-2-yl)ethanamide] reads 80.8 µM.
Still for that read-out and setting: the result for `COc1ccc(Nc2nc(Nc3ccc(OC)cc3)nc(-n3[nH]c(=O)c(C)c3C)n2)cc1` [2-[4,6-bis(4-methoxyanilino)-1,3,5-triazin-2-yl]-3,4-dimethyl-1H-pyrazol-5-one] reads 14.7 µM; that for `COc1ccc(Cn2c(N)c(C(=O)NCc3ccco3)c3nc4ccccc4nc32)cc1` [2-amino-N-(2-furanylmethyl)-1-[(4-methoxyphenyl)methyl]-3-pyrrolo[3,2-b]quinoxalinecarboxamide], 19.8 µM; that for `Cc1cc(-n2c(=O)c(C#N)cc3c(=O)n4ccccc4nc32)no1`, 26.4 µM.
Take `N=c1c(C(=O)NCc2ccco2)cc2c(=O)n3ccccc3nc2n1Cc1ccc(Cl)cc1` [SMR000047818]: the half-maximal effective concentration (EC50) worked out at 63.9 µM.
Regarding `CCOc1ccc(-c2nc(-c3ccccc3)no2)cc1OCC` [5-(3,4-diethoxyphenyl)-3-phenyl-1,2,4-oxadiazole], a half-maximal response (EC50) required 19.2 µM.
Consider `N#CCSc1nnc(-c2ccccc2)c(-c2ccccc2)n1` [2-[(5,6-diphenyl-1,2,4-triazin-3-yl)sulfanyl]acetonitrile], for which the concentration for a half-maximal effect (EC50) came to 47.4 µM. This EC50 lies about 2.5-fold higher than the previous one.
With `COCCCn1c(N)c(C(=O)NCCC(C)C)c2nc3ccccc3nc21` [MLS000041744], the response was half-maximal at 31.4 µM (EC50).
Still for that read-out and setting: the result for `CC(Oc1ccccc1Br)C(=O)N1CCc2ccccc21` (configuration not stated) [1-[2-(2-bromophenoxy)propanoyl]indoline] reads 25.2 µM.
As for `Nc1c(C(=O)NCc2ccc3c(c2)OCO3)c2nc3ccccc3nc2n1CCCN1CCOCC1` [2-amino-N-(1,3-benzodioxol-5-ylmethyl)-1-(3-morpholin-4-ylpropyl)pyrrolo[3,2-b]quinoxaline-3-carboxamide], a half-maximal response (EC50) required 19.1 µM.
Same read-out and setting: the result for `c1ccc(C(Cc2nc(-c3cccnc3)no2)c2ccccc2)cc1` [5-(2,2-diphenylethyl)-3-(3-pyridinyl)-1,2,4-oxadiazole] reads 13.5 µM; that for `Cc1onc(-c2c(Cl)cccc2Cl)c1C(=O)N1CCc2ccccc21` [[3-(2,6-dichlorophenyl)-5-methyl-1,2-oxazol-4-yl]-(2,3-dihydroindol-1-yl)methanone], 30.8 µM; that for `COCCNc1nc(-n2nc(C)cc2C)nc2sc3c(c12)CCCC3` [2-(3,5-dimethyl-1-pyrazolyl)-N-(2-methoxyethyl)-5,6,7,8-tetrahydro-[1]benzothiolo[2,3-d]pyrimidin-4-amine], 13.3 µM.
